Assay results taken from US9113629B2, “4-amino-6-(4-substituted-phenyl)-picolinates and 6-amino-2-(4-substituted-phenyl)-pyrimidine-4-carboxylates and their use as herbicides” (DOW AGROSCIENCES LLC, priority 2013, dated 2015).
Where two headings read alike, the source gives them in different places.

Columns and labels:
[1] = system: Key Broadleaf Weed and Crop Species; experiment: Post-emergent Test II herbicidal activity (Table 5); assay type: in vivo; conditions: post-emergence, 336 h, 14 days after application; for pest or weed control at 70 g/ha: application rate 70 g ai/ha
Method: (§1) Post-emergent Test II: Seeds or nutlets of the desired test plant species were planted in Sun Gro Metro-Mix® 360 planting mixture, which typically has a pH of 6.0 to 6.8 and an organic matter content of about 30 percent, in plastic pots with a surface area of 64 square centimeters. When required to ensure good germination and healthy plants, a fungicide treatment and/or other chemical or physical treatment was applied. The plants were grown for 7-21 d in a greenhouse with an approximate 15 h photoperiod which was maintained at about 23-29° C. during the day and 22-28° C. during the night. Nutrients and water were added on a regular basis and supplemental lighting was provided with overhead metal halide 1000-Watt lamps as necessary. The plants were employed for testing when they reached the first or second true leaf stage.
(§2) A weighed amount, determined by the highest rate to be tested, of each test compound was placed in a 25 mL glass vial and was dissolved in 4 mL of a 97:3 v/v mixture of acetone and DMSO to obtain concentrated stock solutions. […] The concentrated stock solutions obtained were diluted with 20 mL of an aqueous mixture containing acetone, water, isopropyl alcohol, DMSO. Atplus 411F crop oil concentrate, and Triton® X-155 surfactant in a 48.5:39:10:1.5:1.0:0.02 v/v ratio to obtain spray solutions containing the highest application rates. Additional application rates were obtained by serial dilution of 12 mL of the high rate solution into a solution containing 2 mL of 97:3 v/v mixture of acetone and DMSO and 10 mL of an aqueous mixture containing acetone, water, isopropyl alcohol, DMSO, Atplus 411F crop oil concentrate, and Triton X-155 surfactant in a 48.5:39:10:1.5:1.0:0.02 v/v ratio to obtain ½×, ¼×, ⅛× and 1/16× rates of the high rate. Compound requirements are based upon a 12 mL application volume at a rate of 187 liters per hectare (L/ha). Formulated compounds were applied to the plant material with an overhead Mandel track sprayer equipped with 8002E nozzles calibrated to deliver 187 L/ha over an application area of 0.503 square meters at a spray height of 18 inches (43 cm) above the average plant canopy height. Control plants were sprayed in the same manner with the solvent blank.
(§3) The treated plants and control plants were placed in a greenhouse as described above and watered by subirrigation to prevent wash-off of the test compounds. After 14 d, the condition of the test plants as compared with that of the untreated plants was determined visually and scored on a scale of 0 to 100 percent where 0 corresponds to no injury and 100 corresponds to complete kill.

[2] = system: Key Grass and Sedge Weeds as well as Grass Crops; experiment: Post-emergent Test II herbicidal activity (Table 6); assay type: in vivo; conditions: post-emergence, 336 h; for pest or weed control at 70 g/ha: application rate 70 g ai/ha; for pest or weed control at 140 g/ha: application rate 140 g ai/ha
Method: as §1, §2, §3

[3] = ABUTH: velvetleaf (Abutilon theophrasti), read-out: Visual Growth Reduction (%) 14 Days After Application, ABUTH
[4] = AMARE: redroot pigweed (Amaranthus retroflexus), read-out: Visual Growth Reduction (%) 14 Days After Application, AMARE
[5] = BRSNN: oilseed-rape, canola (Brassica napus), read-out: Visual Growth Reduction (%) 14 Days After Application, BRSNN
[6] = CHEAL: lambsquarters (Chenopodium album), read-out: Visual Growth Reduction (%) 14 Days After Application, CHEAL
[7] = EPHHL: wild poinsettia (Euphorbia heterophylla), read-out: Visual Growth Reduction (%) 14 Days After Application, EPHHL
[8] = HELAN: sunflower (Helianthus annuus), read-out: Visual Growth Reduction (%) 14 Days After Application, HELAN
[9] = VIOTR: wild pansy (Viola tricolor), read-out: Visual Growth Reduction (%) 14 Days After Application, VIOTR
[10] = Triticum aestivum, TRZSS (wheat), read-out: Visual Growth Reduction (%) 14 Days After Application, TRZSS
[11] = DIGSA: crabgrass (Digitaria sanguinalis), read-out: Visual Growth Reduction (%) 14 Days After Application, DIGSA
[12] = ECHCG: barnyardgrass (Echinochloa crus-galli), read-out: Visual Growth Reduction (%) 14 Days After Application, ECHCG
[13] = ORYSA: rice (Oryza sativa), read-out: Visual Growth Reduction (%) 14 Days After Application, ORYSA
[14] = SETFA: giant foxtail (Setaria faberi), read-out: Visual Growth Reduction (%) 14 Days After Application, SETFA
[15] = SORVU: grain sorghum (Sorghum vulgare), read-out: Visual Growth Reduction (%) 14 Days After Application, SORVU
[16] = ZEAMX: maize, corn (Zea mays), read-out: Visual Growth Reduction (%) 14 Days After Application, ZEAMX

`COC(=O)c1nc(-c2ccc(C(F)(F)F)c(F)c2)nc(N)c1OC` [Compound 26, methyl 6-amino-2-(3-fluoro-4-(trifluoromethyl)phenyl)-5-methoxypyrimidine-4-carboxylate] was tested, and the pest or weed control at 70 g/ha [1, 3] was 85 to 94%, the pest or weed control at 140 g/ha ([1]; ABUTH: velvetleaf (Abutilon theophrasti), application rate 140 g ai/ha, read-out: Visual Growth Reduction (%) 14 Days After Application, ABUTH) was 85 to 94% and the pest or weed control at 70 g/ha [1, 4] was 60 to 74%. The pest or weed control at 140 g/ha ([1]; AMARE: redroot pigweed (Amaranthus retroflexus), application rate 140 g ai/ha, read-out: Visual Growth Reduction (%) 14 Days After Application, AMARE) was 75 to 84%, the pest or weed control at 70 g/ha [1, 5] was 30 to 44% and the pest or weed control at 140 g/ha ([1]; BRSNN: oilseed-rape, canola (Brassica napus), application rate 140 g ai/ha, read-out: Visual Growth Reduction (%) 14 Days After Application, BRSNN) was 30 to 44%. For the same compound, the pest or weed control at 70 g/ha [1, 6] was 0 to 29%, the pest or weed control at 140 g/ha ([1]; CHEAL: lambsquarters (Chenopodium album), application rate 140 g ai/ha, read-out: Visual Growth Reduction (%) 14 Days After Application, CHEAL) was 0 to 29% and the pest or weed control at 70 g/ha [1, 7] was 95 to 100%. It also gave a pest or weed control at 140 g/ha ([1]; EPHHL: wild poinsettia (Euphorbia heterophylla), application rate 140 g ai/ha, read-out: Visual Growth Reduction (%) 14 Days After Application, EPHHL) of 95 to 100%, a pest or weed control at 70 g/ha [1, 8] of 85 to 94% and a pest or weed control at 140 g/ha ([1]; HELAN: sunflower (Helianthus annuus), application rate 140 g ai/ha, read-out: Visual Growth Reduction (%) 14 Days After Application, HELAN) of 85 to 94%. The pest or weed control at 70 g/ha [1, 9] was 0 to 29%, the pest or weed control at 140 g/ha ([1]; VIOTR: wild pansy (Viola tricolor), application rate 140 g ai/ha, read-out: Visual Growth Reduction (%) 14 Days After Application, VIOTR) was 0 to 29% and the pest or weed control at 70 g/ha [2, 10] was 45 to 59%. The pest or weed control at 140 g/ha [2, 10] was 45 to 59%, the pest or weed control at 70 g/ha [2, 11] was 0 to 29% and the pest or weed control at 140 g/ha [2, 11] was 0 to 29%. The pest or weed control at 70 g/ha [2, 12] was 0 to 29%, the pest or weed control at 140 g/ha [2, 12] was 0 to 29% and the pest or weed control at 70 g/ha [2, 13] was 0 to 29%. The pest or weed control at 140 g/ha [2, 13] was 0 to 29%, the pest or weed control at 70 g/ha [2, 14] was 0 to 29% and the pest or weed control at 140 g/ha [2, 14] was 0 to 29%. It also gave a pest or weed control at 70 g/ha [2, 15] of 0 to 29%, a pest or weed control at 140 g/ha [2, 15] of 0 to 29% and a pest or weed control at 70 g/ha [2, 16] of 0 to 29%. The pest or weed control at 140 g/ha [2, 16] was 45 to 59%.
`COc1c(N)nc(-c2ccc(C(F)(F)F)c(F)c2)nc1C(=O)O` [Compound 63] showed a pest or weed control at 140 g/ha ([1]; ABUTH: velvetleaf (Abutilon theophrasti), 140 g ai/ha, post-emergent, read-out: Visual Growth Reduction (%) 14 Days After Application ABUTH) of 85 to 94%, a pest or weed control at 70 g/ha [1, 3] of 60 to 74% and a pest or weed control at 140 g/ha ([1]; AMARE: redroot pigweed (Amaranthus retroflexus), 140 g ai/ha, post-emergent, read-out: Visual Growth Reduction (%) 14 Days After Application AMARE) of 75 to 84%. It also gave a pest or weed control at 70 g/ha [1, 4] of 60 to 74%, a pest or weed control at 140 g/ha ([1]; BRSNN: oilseed-rape, canola (Brassica napus), 140 g ai/ha, post-emergent, read-out: Visual Growth Reduction (%) 14 Days After Application BRSNN) of 85 to 94% and a pest or weed control at 70 g/ha [1, 5] of 75 to 84%. The pest or weed control at 140 g/ha ([1]; CHEAL: lambsquarters (Chenopodium album), 140 g ai/ha, post-emergent, read-out: Visual Growth Reduction (%) 14 Days After Application CHEAL) was 95 to 100%, the pest or weed control at 70 g/ha [1, 6] was 85 to 94% and the pest or weed control at 140 g/ha ([1]; EPHHL: wild poinsettia (Euphorbia heterophylla), 140 g ai/ha, post-emergent, read-out: Visual Growth Reduction (%) 14 Days After Application EPHHL) was 95 to 100%. It also gave a pest or weed control at 70 g/ha [1, 7] of 95 to 100%, a pest or weed control at 140 g/ha ([1]; HELAN: sunflower (Helianthus annuus), 140 g ai/ha, post-emergent, read-out: Visual Growth Reduction (%) 14 Days After Application HELAN) of 85 to 94% and a pest or weed control at 70 g/ha [1, 8] of 85 to 94%. The pest or weed control at 140 g/ha ([1]; VIOTR: wild pansy (Viola tricolor), 140 g ai/ha, post-emergent, read-out: Visual Growth Reduction (%) 14 Days After Application VIOTR) was 95 to 100%, the pest or weed control at 70 g/ha [1, 9] was 75 to 84% and the pest or weed control at 70 g/ha [2, 10] was 60 to 74%. The pest or weed control at 140 g/ha [2, 10] was 60 to 74%, the pest or weed control at 70 g/ha [2, 11] was 60 to 74% and the pest or weed control at 140 g/ha [2, 11] was 60 to 74%. The pest or weed control at 70 g/ha [2, 12] was 75 to 84%, the pest or weed control at 140 g/ha [2, 12] was 95 to 100% and the pest or weed control at 70 g/ha [2, 13] was 0 to 29%. It also gave a pest or weed control at 140 g/ha [2, 13] of 0 to 29%, a pest or weed control at 140 g/ha [2, 14] of 95 to 100% and a pest or weed control at 70 g/ha [2, 15] of 0 to 29%. It also gave a pest or weed control at 140 g/ha [2, 15] of 30 to 44%, a pest or weed control at 70 g/ha [2, 16] of 60 to 74% and a pest or weed control at 140 g/ha [2, 16] of 60 to 74%.
